In ChEMBL document CHEMBL1158963, “Taxinine M, a new tetracyclic taxane from Taxus brevifolia” (J Nat Prod, 1991):
In brackets after ≈: the same amount, converted by molar mass.

Test: Toxicity in brine shrimp after 24 hrs
Assay type: organism-based
Conditions: artemia, in vivo

| SMILES | LC50 at 24 h [µg/mL] |
| --- | --- |
| C/C=C(\C)C(=O)N[C@@H](c1ccccc1)[C@@H](O)C(=O)O[C@H]1C[C@@]2(O)[C@@H](OC(=O)c3ccccc3)[C@@H]3[C@]4(OC(C)=O)CO[C@@H]4C[C@H](O)[C@@]3(C)C(=O)[C@H](OC(C)=O)C(=C1C)C2(C)C [CEPHALOMANNINE] | 0.81 (≈ 0.974 µM) |
| CC(=O)O[C@H]1C(=O)[C@@]2(C)[C@H]([C@H](OC(=O)c3ccccc3)[C@]3(O)C[C@H](OC(=O)[C@H](O)[C@@H](NC(=O)c4ccccc4)c4ccccc4)C(C)=C1C3(C)C)[C@]1(OC(C)=O)CO[C@@H]1C[C@@H]2O [PACLITAXEL] | 0.28 (≈ 0.328 µM) |
| C=C1[C@@H](O)C[C@H](OC(C)=O)[C@@]2(COC(=O)c3ccccc3)[C@@H](OC(C)=O)[C@H](OC(C)=O)[C@@]3(O)[C@]4(C)OC[C@]3(C)C(CC4=O)[C@@H](OC(C)=O)[C@H]12 [TAXININE M] | 620 (≈ 903 µM) |
